Assay results reported in publication PMC4444405 (Chemical biology & drug design, 2014).
Read-outs that look alike come from different tables or passages of the source. Square brackets hold non-standard residues; d marks the D form. Ends that are not written are not given here. pY = N[C@@H](Cc1ccc(OP(=O)(O)O)cc1)C(=O)O

What was measured:
[1] = test system: Src-YEEI:pFAK peptide complex; format: biochemical, human; conditions: ratio of the IC50 values for Src-YEEI:pFAK peptide complex and Src-YEEI alone, ADP Quest
[2] = target: T1, Src-YEEI:pFAK peptide complex (Homo sapiens, UniProt P12931); format: biochemical; conditions: read-out: IC50, Src-YEEI + pFAK, ADP Quest
[3] = test system: Src-YEEI:pFAK peptide complex; assay: Z'Lyte end-point in vitro kinase assay, Src-YEEI in presence of pFAK peptide; format: biochemical, human; conditions: ratio of the IC50 values for Src-YEEI:pFAK peptide complex and Src-YEEI alone, Z'Lyte
[4] = target: T1, Src-YEEI:pFAK peptide complex; assay: as above; format: biochemical; conditions: compound 10 μM; Z'Lyte library screen
Src-YEEI [5] = target: T2, Src-YEEI (Homo sapiens, UniProt P12931); format: biochemical
Src-YEEI [6] = target: T2, Src-YEEI; format: biochemical; conditions: read-out: IC50, Src-YEEI alone, ADP Quest
Src-YEEI [7] = target: T2, Src-YEEI; format: biochemical; remark: listed apart in the source
Src-YEEI [8] = target: T2, Src-YEEI; format: biochemical; remark: listed apart in the source

| Molecule | Selectivity ratio, ADP Quest [1] | IC50 [2] [µM] | Selectivity ratio, Z'Lyte [3] | percent inhibition of Src-YEEI:pFAK peptide complex in the screening assay [4] | percent inhibition of Src-YEEI alone in the screening assay (Src-YEEI [5]; 10 µM) | IC50 (Src-YEEI [5]; read-out: IC50, Src-YEEI alone, Z'Lyte) [µM] | IC50 (Src-YEEI [6]) [µM] | percent of maximal activation of Src-YEEI (Src-YEEI [7]) [%] | rate of ADP production by Src-YEEI in presence of peptide (Src-YEEI [8]) [pmol ADP produced/min] |
| --- | --- | --- | --- | --- | --- | --- | --- | --- | --- |
| COc1ccc(N(C(=O)Oc2c(C)cccc2C)c2ccnc(Nc3ccc(N4CCN(C)CC4)cc3)n2)c(OC)c1 [WH-4-023] | 0.76 | 0.025 | 0.94 | more than 70% | more than 70% | 1.28 | 0.019 | – | – |
| AAAARALPSIPKLAN NEKQGVRSHTVSVSETDDY^PAEIID (AAAARALPSIPKLANNEKQGVRSHTVSVSETDD[pY]AEIID) [pFAK] | – | – | – | – | – | – | – | 40 | 1.0 |
